Results reported in ChEMBL document CHEMBL1154459, “Synthesis and evaluation of a series of benzopyran derivatives as PPAR alpha/gamma agonists” (Eur J Med Chem, 2008).
The source made the active and inactive calls. The calls are words filed in the database; no cut-off is given here.

Experiments:
[1] = target: T1, Peroxisome proliferator-activated receptor alpha (Homo sapiens, UniProt Q07869); assay: Agonist activity at human PPARalpha in U2OS cells by transactivation assay
T1 sequence (Q07869 whole entry): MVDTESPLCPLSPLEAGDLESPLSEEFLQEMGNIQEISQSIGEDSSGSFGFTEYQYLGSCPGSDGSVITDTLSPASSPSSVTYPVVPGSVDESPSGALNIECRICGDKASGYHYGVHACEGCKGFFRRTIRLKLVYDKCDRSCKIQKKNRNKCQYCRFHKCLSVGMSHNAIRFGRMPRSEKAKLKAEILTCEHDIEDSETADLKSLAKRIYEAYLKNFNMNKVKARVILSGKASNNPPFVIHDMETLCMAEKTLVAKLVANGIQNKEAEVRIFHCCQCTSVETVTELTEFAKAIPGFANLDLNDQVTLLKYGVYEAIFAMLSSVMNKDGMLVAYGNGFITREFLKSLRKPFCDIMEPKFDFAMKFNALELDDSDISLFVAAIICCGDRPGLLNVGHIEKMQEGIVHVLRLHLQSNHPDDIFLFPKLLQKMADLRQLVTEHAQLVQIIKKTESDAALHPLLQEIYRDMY

[2] = target: T2, Peroxisome proliferator-activated receptor alpha (Homo sapiens) (UniProt Q07869); assay: Agonist activity at human PPARalpha in U2OS cells by transactivation assay relative to WY-14643; assay type: functional, cell-based
T2 sequence (whole entry): T1 sequence (Q07869 whole entry)

[3] = target: T3, Peroxisome proliferator-activated receptor gamma (Homo sapiens, UniProt P37231)
T3 sequence (P37231 whole entry): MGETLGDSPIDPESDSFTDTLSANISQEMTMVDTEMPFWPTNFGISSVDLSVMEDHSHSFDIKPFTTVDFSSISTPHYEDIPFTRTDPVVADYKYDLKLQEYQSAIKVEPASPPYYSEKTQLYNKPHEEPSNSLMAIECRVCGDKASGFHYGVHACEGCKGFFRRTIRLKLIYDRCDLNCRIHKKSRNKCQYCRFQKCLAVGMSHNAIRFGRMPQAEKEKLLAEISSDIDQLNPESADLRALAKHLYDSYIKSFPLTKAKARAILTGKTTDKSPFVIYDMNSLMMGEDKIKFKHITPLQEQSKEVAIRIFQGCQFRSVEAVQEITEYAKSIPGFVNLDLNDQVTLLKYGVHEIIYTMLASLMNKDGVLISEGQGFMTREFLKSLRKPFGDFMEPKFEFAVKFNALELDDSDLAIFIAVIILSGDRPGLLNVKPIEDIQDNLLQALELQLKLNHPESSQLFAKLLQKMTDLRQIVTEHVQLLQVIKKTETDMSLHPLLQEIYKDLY
Description: Agonist activity at human PPARgamma in U2OS cells by transactivation assay

Row | Compound | EC50 [1] [nM] | %max [2] | EC50 [3] [nM] | EC50 ([1]; u2os)
1 | COC(=O)c1cc2ccc(OCCc3nc(-c4ccc(F)cc4)oc3C)cc2oc1=O | 70 | 44% | 1620 | –
2 | COC(=O)c1cc2ccc(OCCc3nc(-c4cccc([N+](=O)[O-])c4)oc3C)cc2oc1=O | – | inactive | 3550 | Not Active
3 | COC(=O)c1cc2ccc(OCCc3nc(-c4cccc(C)c4)oc3C)cc2oc1=O | – | inactive | 1 | Not Active
4 | COC(=O)c1cc2ccc(OCCc3nc(-c4ccc(C(C)(C)C)cc4)oc3C)cc2oc1=O | 2290 | 90% | 1740 | –
5 | COC(=O)c1cc2ccc(OCCc3nc(-c4cccc(C(F)(F)F)c4)oc3C)cc2oc1=O | 1200 | 21% | 420 | –
6 | COC(=O)c1cc2ccc(OCCc3nc(-c4ccc(C)cc4)oc3C)cc2oc1=O | 1 | 65% | 1 | –
7 | COC(=O)C1Cc2ccc(OCCc3nc(-c4ccc(OC)cc4)oc3C)cc2OC1=O (stereo unspecified) | 1740 | 96% | 1 | –
8 | COC(=O)c1cc2ccc(OCCc3nc(-c4cccc(F)c4)oc3C)cc2oc1=O | 1290 | 38% | 960 | –
9 | COC(=O)c1cc2ccc(OCCc3nc(-c4ccc(-c5ccccc5)cc4)oc3C)cc2oc1=O | 1230 | 116% | 1260 | –
10 | COC(=O)c1cc2ccc(OCCc3nc(-c4ccc(OC)cc4)oc3C)cc2oc1=O | 5250 | 163% | 1 | –
11 | Cc1cccc(Nc2cc(Cl)nc(SCC(=O)O)n2)c1C | – | 100% | – | –

The remaining lines, values ahead:

Row | EC50 [1] [nM] | %max [2] | EC50 [3] [nM] | EC50 ([1]; u2os) | Compound
12 | 170 | 23% | 160 | – | COC(=O)C1Cc2ccc(OCCc3nc(-c4cccc(C(F)(F)F)c4)oc3C)cc2OC1=O (stereo unspecified)
13 | 1620 | 100% | 350 | – | COC(=O)c1cc2ccc(OCCc3nc(-c4cccc(OC)c4)oc3C)cc2oc1=O
14 | 100 | 26% | 250 | – | COC(=O)C1Cc2ccc(OCCc3nc(-c4ccc(C(C)(C)C)cc4)oc3C)cc2OC1=O (stereo unspecified)
15 | 1550 | 83% | 1 | – | COC(=O)C1Cc2ccc(OCCc3nc(-c4cccc(C)c4)oc3C)cc2OC1=O (stereo unspecified)
16 | 100 | 98% | 1 | – | COC(=O)C1Cc2ccc(OCCc3nc(-c4ccc(F)cc4)oc3C)cc2OC1=O (stereo unspecified)
17 | 910 | 68% | 1120 | – | COC(=O)C1Cc2ccc(OCCc3nc(-c4ccc(-c5ccccc5)cc4)oc3C)cc2OC1=O (stereo unspecified)
18 | 720 | 30% | 170 | – | COC(=O)C1Cc2ccc(OCCc3nc(-c4cccc(F)c4)oc3C)cc2OC1=O (stereo unspecified)
19 | 140 | 42% | 130 | – | COC(=O)C1Cc2ccc(OCCc3nc(-c4ccccc4)oc3C)cc2OC1=O (stereo unspecified)
20 | 1200 | 23% | 100 | – | COC(=O)C1Cc2ccc(OCCc3nc(-c4cccc(OC)c4)oc3C)cc2OC1=O (stereo unspecified)
21 | 910 | 94% | 1 | – | COC(=O)C1Cc2ccc(OCCc3nc(-c4ccc(C)cc4)oc3C)cc2OC1=O (stereo unspecified)
